From patent US20160317468A1, “USES OF CANNABIDIOL FOR TREATMENT OF INFANTILE SPASMS” (priority 2015, published 2016)

Legend:
infantile spasms [1] = assay: Clinical trial of a composition comprising cannabidiol in subjects with infantile spasms, overnight video-EEG on day 14; format: in vivo; conditions: human subjects 6 to 36 months who failed hormonal therapy and vigabatrin, CBD titrated to 40 mg/kg/day TID, control receives placebo
Protocol: Human subjects with video-EGG confirmed infantile spasms, between the ages of 6 months and 36 months, who have failed adequate treatments with hormonal therapy (adrenocorticotropic hormone (ACTH) (e.g., 150 IU/m2/day×2 weeks) and/or prednisolone (e.g., 8 mg/kg/day×2 weeks) and vigabatrin (e.g., 150 mg/kg/day×2 weeks)) will receive a composition comprising cannabidiol (“CBD”) according to the treatment schedule of Table 5. The control group receives placebo.
The 40 mg/kg/day treatment is optionally extended for up to one year in the cannabidiol group for subjects who display a response (FIG. 1). The cannabidiol dosage is tapered in the cannabidiol group according to Table 6.

infantile spasms [2] = conditions: high-dose study; intramuscular ACTH therapy; cited from earlier work

Compound | symptoms of infantile spasms on overnight video-EEG, cannabidiol group relative to control group (infantile spasms [1]) | patients with cessation of seizures and normal EEG patterns (infantile spasms [2])
C=C(C)[C@@H]1CCC(C)=C[C@H]1c1c(O)cc(CCCCC)cc1O [cannabidiol, (−)-trans-2-p-mentha-1,8-dien-3-yl-5-pentylresorcinol] | reduced symptoms of infantile spasms | 
adrenocorticotropic hormone (SYSMEHFRWGKPVGKKRRPVKVYPNGAEDESAEAFPLEF; Corticotropin; UniProt P01189 138-176, looked up) [ACTH] |  | 13 of the 15
